Columns and labels:
Type in all cases: cell-based
HEK293 cells = assay: CFTR protein expression by protein gel / Western blot (C band); conditions: for C-band expression (quantification of Western blot): FIG. 11A, 11B; for expression in the C band (mature complex glycosylated CFTR): HEK293 lysates, FIG. 18A-18C
Description: The CFTR band is depicted by an arrow (FIG. 3A).
To examine the expression of CFTR mutants, expression of the wild-type CFTR, 15E, 13E, and E1371Q mutants was quantified as shown in FIG. 11A and FIG. 11B.
Studies were also performed to assess in vitro translation and tolerability of CFTR mutants. […] The “C band” refers to mature complex glycosylated form of CFTR.

FRT cells [1] = assay: Time-course Ussing chamber assay (duration of activity, 22 and 44 hours); conditions: at 44 hours (measured at 22 and 44 hours); FIG. 14A, 14B
Description: In this example, duration of activity of various phosphomimetic CFTR mutants were tested in combination with the K14R mutation using a time-course Ussing chamber assay as described in Example 3.
Activity of various CFTR proteins listed in Table 12 were measured at 22 and 44 hours. Short-circuit current (Isc), the movement of ions as measured in the Ussing chamber from active transport, was plotted for each CFTR protein at 22 and 44 hours.

FRT cells [2] = assay: Ussing chamber assay: short-circuit current (chloride ion transport) of cells transfected with WT or engineered CFTR mRNA; sequential forskolin, VX-770, CFTRinh-172
Description: Chloride ion transport was measured by an Ussing chamber. This assay provides an indication of chloride flux based on the principle that the epithelium pumps ions from one side to another and ions leak back through tight junctions situated between epithelial cells. The voltage difference between two sides of the epithelium is measured using two voltage electrodes placed near the tissue/epithelium. The voltage is cancelled out by injecting current, using two other electrodes placed away from the epithelium. The short circuit current is measured as net chloride ion transport.
Traces show short-circuit current measurements during sequential additions of forskolin, an activator of CFTR-mediated chloride secretion, and VX-770 (ivacaftor), a potentiator compound that directly increases phosphorylation-dependent CFTR channel opening on amphotericin B-permeabilized membranes. CFTR proteins A-D responded to forskolin activation resulting in increased chloride ion conductance. Forskolin activation was not observed for CFTR Protein E, the ATP hydrolysis deficient E1371Q mutant. Further addition of VX-770 increased conductance in CFTR Proteins B-D.
In this example, activation of various engineered CFTR protein mutants (proteins B-E, discussed above) were compared with the activation of wild type CFTR (protein A) using the Ussing assay as described in Example 3. In this example the engineered CFTR protein activity was tested at a low concentration of 0.35 μg (FIG. 4).
In this example, activities of various engineered phosphomimetic CFTR protein mutants (Table. 9) were compared with the activity of wild-type CFTR using the Ussing chamber assay as described in Example 3.

[3] = HEK293 cells, versus wild-type CFTR
[4] = 0.35 μg (low concentration), FRT cells, FIG. 4

## 13E: S422E, S660E, S670E, S686E, T690E, S700E, S712E, S753E, T787E, T788E, T790E, S795E, S813E (codon optimized: SEQ ID NO: 52)
HEK293 cells; [3]
  C-band expression (quantification of Western blot): increased C-band expression
HEK293 cells; HEK293 cells, versus wild-type CFTR, FIG. 11B
  increase in protein (C-band, quantification of Western blot): greater than 2 fold
HEK293 cells
  expression in the C band (mature complex glycosylated CFTR): increased expression in the C band
FRT cells [1]
  remaining activity (short-circuit current, Isc): highest remaining activity at 44 hours
FRT cells [2]; 13 or 15 R-domain substitutions, FRT cells, FIG. 9A, 9B, 11E
  CFTR activity, glutamate (E) versus aspartate (D) substitutions: greater CFTR activity
FRT cells [2]; FIG. 14C
  effect of additional K14R substitution on chloride conductance of the named protein: no effect
FRT cells [2]; maximum activated current, FRT cells, FIG. 11C, 11D
  change in activity when K14R mutation is combined with the named phosphomimetic mutant: no significant increase in the activity

## 15E/K14R: K14R plus the 15E substitutions (codon optimized: SEQ ID NO: 51)
FRT cells [1]
  remaining activity (short-circuit current, Isc): highest remaining activity at 44 hours

## E1371Q/K14R: E1371Q plus K14R (codon optimized: SEQ ID NO: 49)
HEK293 cells; FIG. 13B
  expression compared to wild-type CFTR and to E1371Q-only CFTR: increased expression
HEK293 cells
  expression in the C band (mature complex glycosylated CFTR): increased expression in the C band
FRT cells [1]
  remaining activity (short-circuit current, Isc): high remaining activity at 44 hours
FRT cells [2]; FRT cells, FIG. 13A, 13B
  activity compared to wild-type CFTR and to E1371Q-only CFTR: increased activity

B1: CFTR Protein E: E1371Q, ATP hydrolysis deficient (SEQ ID NO: 44, 48) (nucleic acid)
DNA: GTGCAGCCCCTGCTGCTCGGCAGAATCATCGCCTCATACGATCCAGACAACAAGGAAGAAAGAAGCATCGCCATCTACCTGGGCATTGGCCTCTGCCTCCTGTTTATTGTGCGGACTCTGCTGCTGCACCCAGCAATTTTCGGGTTGCATCATATTGGCATGCAGATGCGCATTGCTATGTTTTCCCTCATCTACAAAAAGACACTGAAACTCAGCTCCCGGGTGCTGGACAAGATCTCCATCGGCCAACTGGTGTCTCTCCTGAGCAATAACTTGAATAAGTTCGACGAAGGGCTGGCCCTGGCACACTTCGTGTGGATTGCCCCCCTGCAGGTGGCCCTGCTGATGGGACTGATTTGGGAACTGCTGCAGGCTAGCGCTTTCTGCGGCCTGGGGTTCCTGATCGTGCTGGCACTGTTTCAGGCAGGCCTGGGCCGTATGATGATGAAGTACAGAGACCAGAGGGCCGGGAAGATCTCCGAACGGCTCGTTATTACCTCTGAGATGATCGAGAACATTCAGTCTGTGAAAGCCTACTGCTGGGAGGAGGCTATGGAGAAGATGATCGAGAATCTGAGACAGACCGAGCTGAAGCTGACCAGAAAGGCCGCCTACGTGAGGTACTTCAACAGCAGTGCCTTCTTCTTCTCTGGCTTCTTCGTTGTGTTTCTGAGCGTGCTGCCATACGCTCTCATCAAAGGCATCATCCTGCGGAAGATCTTCACCACCATCAGCTTTTGCATCGTGCTTAGAATGGCCGTGACCCGGCAGTTCCCATGGGCCGTGCAAACTTGGTATGATTCCCTGGGCGCCATCAACAAAATCCAGGATTTCCTGCAGAAGCAGGAATACAAGACACTCGAATATAATCTCACAACTACTGAGGTGGTTATGGAGAACGTGACTGCCTTCTGGGAGGAGGGGTTCGGAGAGCTTTTTGAGAAGGCAAAACAGAATAACAACAACCGCAAAACCAGCAACGGCGACGACAGCCTGTTCTTCTCCAATTTTTCTCTCCTGGGAACACCCGTCCTCAAAGACATCAACTTTAAGATCGAGAGGGGACAGCTGCTCGCAGTCGCCGGATCCACAGGCGCCGGCAAGACCTCTCTGCTGATGGTTATCATGGGCGAACTGGAGCCATCCGAGGGCAAGATTAAGCACAGTGGAAGAATCTCCTTTTGTAGCCAGTTCAGTTGGATTATGCCCGGCACTATTAAGGAGAATATCATTTTTGGGGTGAGCTATGATGAGTATCGGTATCGGAGCGTTATCAAAGCCTGTCAGCTGGAGGAGGATATCAGCAAATTCGCAGAGAAGGATAATATCGTGCTGGGGGAGGGGGGAATCACCCTGAGCGGAGGCCAGAGAGCCAGAATCTCACTGGCCCGGGCCGTCTACAAGGACGCCGACCTTTACCTTCTGGACAGTCCCTTTGGATATCTGGATGTGCTGACTGAAAAGGAGATCTTCGAGTCTTGTGTGTGCAAG
HEK293 cells; [3]
  C-band expression (quantification of Western blot): increased C-band expression
FRT cells [2]; 0.35 μg (low concentration), FIG. 4
  forskolin activation: forskolin activation at a lower dose in comparison to other constructs tested
FRT cells [2]; [4]
  conductance prior to forskolin addition: significant pre-forskolin conductance
  overall activity compared to wild-type CFTR: overall increased activity
FRT cells [2]; 0.5 μg CFTR (high concentration), amphotericin B-permeabilized membranes, FIG. 3B
  response to forskolin activation (chloride ion conductance, short-circuit current): not observed
FRT cells [2]; FIG. 12A, 12B
  forskolin activation and increased activity by addition of VX-770: minimal response to VX-770
FRT cells [2]; FRT cells, FIG. 12A, 12B
  activity / conductance (short circuit current) compared to wild-type CFTR: overall higher conductance than the wild-type CFTR
FRT cells [2]; doses 0.05-0.35 μg/well, FIG. 5
  activity pattern across doses: consistent activity pattern across treatments
FRT cells [2]; short-circuit conductivity, FIG. 15C
  effect of K1218R mutation on activity of the named CFTR protein: decreases activity
